Reference: PMC4672351, “Drug-Drug Interaction Potentials of Tyrosine Kinase Inhibitors via Inhibition of UDP-Glucuronosyltransferases” (Scientific Reports, 2015)

Columns and labels:
UGT1A6 = target: T1, UGT1A6 (Homo sapiens, UniProt P19224); assay: Inhibition of 4-MU glucuronidation by recombinant UGT1A6; format: in vitro ADME; conditions: recombinant UGT1A6, pH 7.4, probe 4-MU, 100 μM inhibitor, 4-MU substrate, positive control diclofenac, read-out: Remaining activities (%) of UGT1A6
T1 construct: purchased BD Gentest (Woburn, MA); host or cells: baculovirus-infected insect cells
T1 sequence (P19224 27-532): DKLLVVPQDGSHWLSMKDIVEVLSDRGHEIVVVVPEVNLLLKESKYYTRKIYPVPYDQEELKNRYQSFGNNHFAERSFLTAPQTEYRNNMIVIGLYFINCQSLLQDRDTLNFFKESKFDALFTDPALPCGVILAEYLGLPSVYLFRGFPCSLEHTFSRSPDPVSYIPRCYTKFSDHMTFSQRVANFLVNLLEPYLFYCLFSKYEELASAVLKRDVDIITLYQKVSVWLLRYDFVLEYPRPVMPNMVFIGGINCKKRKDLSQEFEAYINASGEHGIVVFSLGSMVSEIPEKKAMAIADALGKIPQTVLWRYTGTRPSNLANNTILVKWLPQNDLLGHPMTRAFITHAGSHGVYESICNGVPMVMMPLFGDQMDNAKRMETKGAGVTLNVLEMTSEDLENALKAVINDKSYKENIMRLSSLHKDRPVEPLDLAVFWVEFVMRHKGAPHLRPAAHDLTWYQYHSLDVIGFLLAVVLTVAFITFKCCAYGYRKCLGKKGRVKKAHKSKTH

UGT1A9 = target: T2, UGT1A9 (Homo sapiens, UniProt O60656); assay: in vitro; conditions: recombinant UGT1A9, pH 7.4, probe 4-MU
T2 sequence (O60656 26-530): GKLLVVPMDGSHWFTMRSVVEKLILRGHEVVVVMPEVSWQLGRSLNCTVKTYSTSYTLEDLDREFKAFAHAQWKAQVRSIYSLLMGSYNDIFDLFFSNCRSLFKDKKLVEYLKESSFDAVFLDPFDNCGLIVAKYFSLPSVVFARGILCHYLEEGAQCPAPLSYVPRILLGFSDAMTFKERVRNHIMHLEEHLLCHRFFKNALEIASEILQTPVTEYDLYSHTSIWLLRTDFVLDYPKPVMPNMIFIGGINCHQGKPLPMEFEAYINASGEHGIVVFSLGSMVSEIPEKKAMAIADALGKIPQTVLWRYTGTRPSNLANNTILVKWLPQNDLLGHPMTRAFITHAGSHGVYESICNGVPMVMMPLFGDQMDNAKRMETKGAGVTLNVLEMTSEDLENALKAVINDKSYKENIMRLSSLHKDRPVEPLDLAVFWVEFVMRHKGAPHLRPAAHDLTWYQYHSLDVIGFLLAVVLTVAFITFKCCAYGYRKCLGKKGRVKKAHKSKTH

UGT1A1 = target: T3, UGT1A1 (Homo sapiens, UniProt P22309); assay: Inhibition of 4-MU glucuronidation by recombinant UGT1A1; conditions: human, recombinant UGT1A1, pH 7.4, probe 4-MU
T3 sequence (P22309 26-533): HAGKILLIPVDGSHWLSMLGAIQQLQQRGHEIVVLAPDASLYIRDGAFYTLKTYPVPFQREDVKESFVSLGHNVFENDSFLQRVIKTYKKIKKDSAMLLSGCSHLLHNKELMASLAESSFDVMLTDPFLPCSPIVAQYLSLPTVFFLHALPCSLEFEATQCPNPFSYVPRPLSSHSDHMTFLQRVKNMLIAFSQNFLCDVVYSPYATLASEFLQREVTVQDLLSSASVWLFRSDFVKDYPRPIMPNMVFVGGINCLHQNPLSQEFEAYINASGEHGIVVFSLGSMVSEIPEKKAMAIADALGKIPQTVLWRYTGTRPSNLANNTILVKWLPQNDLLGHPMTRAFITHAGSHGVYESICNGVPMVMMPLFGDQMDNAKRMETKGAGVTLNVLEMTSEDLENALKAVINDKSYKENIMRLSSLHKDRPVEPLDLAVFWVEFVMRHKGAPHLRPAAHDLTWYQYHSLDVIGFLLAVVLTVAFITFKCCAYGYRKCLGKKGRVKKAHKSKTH

UGT1A7 = target: T4, UGT1A7 (Homo sapiens, UniProt Q9HAW7); assay: Inhibition of 4-MU glucuronidation by recombinant UGT1A7; conditions: human, recombinant UGT1A7, pH 7.4, probe 4-MU
T4 sequence (Q9HAW7 26-530): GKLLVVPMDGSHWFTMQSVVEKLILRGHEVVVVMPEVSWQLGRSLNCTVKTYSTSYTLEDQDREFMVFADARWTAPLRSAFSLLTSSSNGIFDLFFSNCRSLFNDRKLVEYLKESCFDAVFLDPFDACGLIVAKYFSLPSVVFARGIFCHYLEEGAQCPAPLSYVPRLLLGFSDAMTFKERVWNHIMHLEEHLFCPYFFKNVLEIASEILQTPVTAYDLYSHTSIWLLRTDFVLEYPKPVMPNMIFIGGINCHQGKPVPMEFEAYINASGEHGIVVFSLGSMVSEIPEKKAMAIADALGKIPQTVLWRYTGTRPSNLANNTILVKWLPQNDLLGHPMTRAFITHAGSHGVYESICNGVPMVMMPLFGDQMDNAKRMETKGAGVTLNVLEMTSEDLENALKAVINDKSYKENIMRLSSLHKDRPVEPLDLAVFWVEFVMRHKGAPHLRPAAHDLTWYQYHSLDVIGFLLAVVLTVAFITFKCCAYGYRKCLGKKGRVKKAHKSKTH

UGT1A8 = target: T5, UGT1A8 (Homo sapiens, UniProt Q9HAW9); assay: Inhibition of 4-MU glucuronidation by recombinant UGT1A8; conditions: recombinant UGT1A8, pH 7.4, probe 4-MU
T5 sequence (Q9HAW9 26-530): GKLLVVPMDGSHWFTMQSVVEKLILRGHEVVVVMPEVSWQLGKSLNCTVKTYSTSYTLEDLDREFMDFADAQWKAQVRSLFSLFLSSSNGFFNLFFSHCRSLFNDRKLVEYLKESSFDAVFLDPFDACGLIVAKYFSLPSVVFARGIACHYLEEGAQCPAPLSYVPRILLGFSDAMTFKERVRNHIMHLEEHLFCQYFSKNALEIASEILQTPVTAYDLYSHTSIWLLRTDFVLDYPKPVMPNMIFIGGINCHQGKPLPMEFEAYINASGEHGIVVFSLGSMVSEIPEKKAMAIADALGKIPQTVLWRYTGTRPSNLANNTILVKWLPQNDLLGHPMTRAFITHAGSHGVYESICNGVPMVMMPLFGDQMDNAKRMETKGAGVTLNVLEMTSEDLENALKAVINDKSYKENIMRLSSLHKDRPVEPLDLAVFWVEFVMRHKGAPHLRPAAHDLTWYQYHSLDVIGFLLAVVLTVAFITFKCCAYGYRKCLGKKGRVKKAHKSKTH

UGT1A10 = target: T6, UGT1A10 (Homo sapiens, UniProt Q9HAW8); assay: Inhibition of 4-MU glucuronidation by recombinant UGT1A10; conditions: recombinant UGT1A10, pH 7.4, probe 4-MU
T6 sequence (Q9HAW8 26-530): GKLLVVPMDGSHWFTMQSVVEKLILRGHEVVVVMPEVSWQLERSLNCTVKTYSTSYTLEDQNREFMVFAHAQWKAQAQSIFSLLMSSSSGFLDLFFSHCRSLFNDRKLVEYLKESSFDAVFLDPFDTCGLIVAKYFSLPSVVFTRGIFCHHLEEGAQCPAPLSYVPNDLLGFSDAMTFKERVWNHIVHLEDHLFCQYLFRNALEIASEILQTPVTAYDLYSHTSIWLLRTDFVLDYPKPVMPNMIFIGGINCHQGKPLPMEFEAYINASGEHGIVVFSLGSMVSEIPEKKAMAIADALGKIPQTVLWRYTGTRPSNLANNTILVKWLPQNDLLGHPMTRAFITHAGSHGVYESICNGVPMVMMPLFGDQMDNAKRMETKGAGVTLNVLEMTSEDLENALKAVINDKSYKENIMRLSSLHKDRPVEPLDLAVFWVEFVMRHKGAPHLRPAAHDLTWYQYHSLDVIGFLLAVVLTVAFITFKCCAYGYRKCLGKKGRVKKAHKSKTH

UGT1A4 = target: T7, UGT1A4 (Homo sapiens, UniProt P22310); assay: Inhibition of TFP glucuronidation by recombinant UGT1A4; conditions: 100 μM inhibitor; TFP substrate; positive control hecogenin
T7 sequence (P22310 29-534): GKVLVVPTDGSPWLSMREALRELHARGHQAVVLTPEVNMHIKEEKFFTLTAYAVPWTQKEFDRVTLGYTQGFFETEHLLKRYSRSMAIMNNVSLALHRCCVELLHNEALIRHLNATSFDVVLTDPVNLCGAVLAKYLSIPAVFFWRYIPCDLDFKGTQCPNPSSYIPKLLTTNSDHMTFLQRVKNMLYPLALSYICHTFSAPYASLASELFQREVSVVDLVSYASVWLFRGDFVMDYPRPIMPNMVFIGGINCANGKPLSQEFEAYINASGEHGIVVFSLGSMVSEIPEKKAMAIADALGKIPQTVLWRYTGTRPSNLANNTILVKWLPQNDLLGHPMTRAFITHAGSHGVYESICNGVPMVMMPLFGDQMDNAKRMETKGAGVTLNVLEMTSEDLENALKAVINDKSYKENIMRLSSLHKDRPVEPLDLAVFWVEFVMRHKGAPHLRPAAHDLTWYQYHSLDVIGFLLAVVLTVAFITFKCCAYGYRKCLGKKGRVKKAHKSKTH

## O=C(O)Cc1ccccc1Nc1c(Cl)cccc1Cl [diclofenac]
UGT1A6
  activity at 30 min, 100 µM: 28.2 ± 10%
UGT1A9
  activity at 30 min, 100 µM: 15.2 ± 1.2%
UGT1A1
  activity at 120 min, 100 µM: 37 ± 2.1%
UGT1A7
  activity at 30 min, 100 µM: 25.6 ± 11.2%

## CCCCC1C(=O)N(c2ccccc2)N(c2ccccc2)C1=O [phenylbutazone]
UGT1A8
  activity at 30 min, 100 µM: 40.2 ± 5.3%
UGT1A10
  activity at 120 min, 100 µM: 37.8 ± 8%

## hecogenin
UGT1A4
  Remaining activities (%) of UGT1A4: 20.3 ± 6.6%
